Earlier results, collected in patent publication US20260069551A1, “Patch for treating demyelinating diseases” (Johannes Gutenberg-Universität Mainz, priority 2022, published 2026).

System: injured nerves
Conditions: 10 mg/kg/day, intraperitoneally injected

Cn1c(=O)c2[nH]cnc2n(C)c1=O [theophylline, 1,3-dimethyl-7H-purine-2,6-dione]
remyelination of injured nerves: significant remyelination
